Results: the CheMixHub viscosity set

Assay: xn = mol fraction of the nth substance listed

C1CCOC1 + O
Details | viscosity [mPa·s]
298 K, 101 kPa, x2 = 0.217 | 0.5842
298 K, 101 kPa, x2 = 0.284 | 0.6433
298 K, 101 kPa, x2 = 0.331 | 0.6715
298 K, 101 kPa, x2 = 0.3845 | 0.7352
298 K, 101 kPa, x2 = 0.4994 | 0.9349
298 K, 101 kPa, x2 = 0.6293 | 1.22
298 K, 101 kPa, x2 = 0.8001 | 1.681
298 K, 101 kPa, x2 = 0.8523 | 1.745
298 K, 101 kPa, x2 = 0.9073 | 1.658
298.15 K, 101 kPa, x1 = 0.02 | 1.157
298.15 K, 101 kPa, x1 = 0.05 | 1.464
298.15 K, 101 kPa, x1 = 0.07 | 1.62
298.15 K, 101 kPa, x1 = 0.1001 | 1.749
298.15 K, 101 kPa, x1 = 0.1199 | 1.79
298.15 K, 101 kPa, x1 = 0.1499 | 1.796
298.15 K, 101 kPa, x1 = 0.1699 | 1.783
298.15 K, 101 kPa, x1 = 0.2 | 1.723
298.15 K, 101 kPa, x1 = 0.2199 | 1.671
298.15 K, 101 kPa, x1 = 0.25 | 1.586
298.15 K, 101 kPa, x1 = 0.2701 | 1.538
298.15 K, 101 kPa, x1 = 0.3002 | 1.445
298.15 K, 101 kPa, x1 = 0.3499 | 1.313
298.15 K, 101 kPa, x1 = 0.3999 | 1.172
298.15 K, 101 kPa, x1 = 0.4499 | 1.039
298.15 K, 101 kPa, x1 = 0.5001 | 0.9437
298.15 K, 101 kPa, x1 = 0.5998 | 0.7744
298.15 K, 101 kPa, x1 = 0.7001 | 0.65
298.15 K, 101 kPa, x1 = 0.8001 | 0.5622
298.15 K, 101 kPa, x1 = 0.9 | 0.4979
298.15 K, 101 kPa, x2 = 0.31 | 0.6564
298.15 K, 101 kPa, x2 = 0.5 | 0.9237
298.15 K, 101 kPa, x2 = 0.63 | 1.224
298.15 K, 101 kPa, x2 = 0.68 | 1.399
298.15 K, 101 kPa, x2 = 0.73 | 1.49
298.15 K, 101 kPa, x2 = 0.77 | 1.582
298.15 K, 101 kPa, x2 = 0.8 | 1.678
298.15 K, 101 kPa, x2 = 0.83 | 1.701
298.15 K, 101 kPa, x2 = 0.86 | 1.732
298.15 K, 101 kPa, x2 = 0.9 | 1.68
298.15 K, 101 kPa, x2 = 0.94 | 1.49
298.15 K, 101 kPa, x2 = 0.97 | 1.202
298.15 K, 101.32 kPa, x1 = 0.0423 | 1.362
298.15 K, 101.32 kPa, x1 = 0.0812 | 1.647
298.15 K, 101.32 kPa, x1 = 0.1809 | 1.741
298.15 K, 101.32 kPa, x1 = 0.3559 | 1.285
298.15 K, 101.32 kPa, x1 = 0.5248 | 0.892
298.15 K, 101.32 kPa, x1 = 0.7342 | 0.638
298.15 K, 101.32 kPa, x1 = 0.8468 | 0.554
298.15 K, 101.32 kPa, x2 = 0.0008 | 0.47
298.15 K, 101.33 kPa, x2 = 0.111 | 0.515
298.15 K, 101.33 kPa, x2 = 0.197 | 0.565
298.15 K, 101.33 kPa, x2 = 0.3027 | 0.65
298.15 K, 101.33 kPa, x2 = 0.4036 | 0.763
298.15 K, 101.33 kPa, x2 = 0.5028 | 0.916
298.15 K, 101.33 kPa, x2 = 0.6047 | 1.129
298.15 K, 101.33 kPa, x2 = 0.7032 | 1.394
298.15 K, 101.33 kPa, x2 = 0.8017 | 1.651
298.15 K, 101.33 kPa, x2 = 0.9013 | 1.665
303.15 K, 101 kPa, x1 = 0.02 | 1.025
303.15 K, 101 kPa, x1 = 0.05 | 1.276
303.15 K, 101 kPa, x1 = 0.07 | 1.398
303.15 K, 101 kPa, x1 = 0.1001 | 1.514
303.15 K, 101 kPa, x1 = 0.1199 | 1.549
303.15 K, 101 kPa, x1 = 0.1499 | 1.558
303.15 K, 101 kPa, x1 = 0.1699 | 1.55
303.15 K, 101 kPa, x1 = 0.2 | 1.504
303.15 K, 101 kPa, x1 = 0.2199 | 1.466
303.15 K, 101 kPa, x1 = 0.25 | 1.395
303.15 K, 101 kPa, x1 = 0.2701 | 1.358
303.15 K, 101 kPa, x1 = 0.3002 | 1.281
303.15 K, 101 kPa, x1 = 0.3499 | 1.174
303.15 K, 101 kPa, x1 = 0.3999 | 1.056
303.15 K, 101 kPa, x1 = 0.4499 | 0.9408
303.15 K, 101 kPa, x1 = 0.5001 | 0.8597
303.15 K, 101 kPa, x1 = 0.5998 | 0.7127
303.15 K, 101 kPa, x1 = 0.7001 | 0.6034
303.15 K, 101 kPa, x1 = 0.8001 | 0.5252
303.15 K, 101 kPa, x1 = 0.9 | 0.4699
303.15 K, 101.33 kPa, x1 = 0.0971 | 1.444
303.15 K, 101.33 kPa, x1 = 0.1497 | 1.523
303.15 K, 101.33 kPa, x1 = 0.2011 | 1.477
303.15 K, 101.33 kPa, x1 = 0.3057 | 1.257
303.15 K, 101.33 kPa, x1 = 0.3979 | 1.04
303.15 K, 101.33 kPa, x1 = 0.4978 | 0.8602
303.15 K, 101.33 kPa, x1 = 0.6026 | 0.7189
303.15 K, 101.33 kPa, x1 = 0.7025 | 0.6137
303.15 K, 101.33 kPa, x1 = 0.8003 | 0.5413
303.15 K, 101.33 kPa, x1 = 0.8978 | 0.4813
308.15 K, 101 kPa, x1 = 0.02 | 0.9079
308.15 K, 101 kPa, x1 = 0.05 | 1.124
308.15 K, 101 kPa, x1 = 0.07 | 1.227
308.15 K, 101.33 kPa, x1 = 0.0971 | 1.256
308.15 K, 101.33 kPa, x1 = 0.1497 | 1.329
308.15 K, 101.33 kPa, x1 = 0.2011 | 1.301
308.15 K, 101.33 kPa, x1 = 0.3057 | 1.12
308.15 K, 101.33 kPa, x1 = 0.3979 | 0.9414
308.15 K, 101.33 kPa, x1 = 0.4978 | 0.7881
308.15 K, 101.33 kPa, x1 = 0.6026 | 0.6666
308.15 K, 101.33 kPa, x1 = 0.7025 | 0.5723
308.15 K, 101.33 kPa, x1 = 0.8003 | 0.5085
308.15 K, 101.33 kPa, x1 = 0.8978 | 0.4554
313.15 K, 101.33 kPa, x1 = 0.1497 | 1.171
313.15 K, 101.33 kPa, x1 = 0.2011 | 1.154
313.15 K, 101.33 kPa, x1 = 0.3057 | 1.01
313.15 K, 101.33 kPa, x1 = 0.3979 | 0.8555
313.15 K, 101.33 kPa, x1 = 0.4978 | 0.724
313.15 K, 101.33 kPa, x1 = 0.6026 | 0.6175
313.15 K, 101.33 kPa, x1 = 0.7025 | 0.5361
313.15 K, 101.33 kPa, x1 = 0.8003 | 0.4788
313.15 K, 101.33 kPa, x1 = 0.8978 | 0.4306
318.15 K, 101.33 kPa, x1 = 0.0971 | 0.9839
318.15 K, 101.33 kPa, x1 = 0.1497 | 1.041
318.15 K, 101.33 kPa, x1 = 0.2011 | 1.037
318.15 K, 101.33 kPa, x1 = 0.3057 | 0.9172
318.15 K, 101.33 kPa, x1 = 0.3979 | 0.7829
318.15 K, 101.33 kPa, x1 = 0.4978 | 0.6687
318.15 K, 101.33 kPa, x1 = 0.6026 | 0.576
318.15 K, 101.33 kPa, x1 = 0.7025 | 0.5036
318.15 K, 101.33 kPa, x1 = 0.8003 | 0.452
318.15 K, 101.33 kPa, x1 = 0.8978 | 0.4089
323.15 K, 101.33 kPa, x1 = 0.0971 | 0.8801
323.15 K, 101.33 kPa, x1 = 0.1497 | 0.9355
323.15 K, 101.33 kPa, x1 = 0.2011 | 0.9367
323.15 K, 101.33 kPa, x1 = 0.3057 | 0.8382
323.15 K, 101.33 kPa, x1 = 0.3979 | 0.7216
323.15 K, 101.33 kPa, x1 = 0.4978 | 0.621
323.15 K, 101.33 kPa, x1 = 0.6026 | 0.5365
323.15 K, 101.33 kPa, x1 = 0.7025 | 0.4716
323.15 K, 101.33 kPa, x1 = 0.8003 | 0.4277
323.15 K, 101.33 kPa, x1 = 0.8978 | 0.3879
